Earlier results as cited in patent US20100111883A1, “CYCLODEXTRIN FORMULATIONS” (priority 2007, published 2010).

Legend:
[1] = HPBCD alone, through the skin; stated as typical

water solubility: freely water soluble
skin penetration [1]: about 0.1%
SMILES: CC(O)COC[C@H]1O[C@@H]2O[C@H]3[C@H](O)[C@@H](O)[C@@H](O[C@H]4[C@H](O)[C@@H](O)[C@@H](O[C@H]5[C@H](O)[C@@H](O)[C@@H](O[C@H]6[C@H](O)[C@@H](O)[C@@H](O[C@H]7[C@H](O)[C@@H](O)[C@@H](O[C@H]8[C@H](O)[C@@H](O)[C@@H](O[C@H]1[C@H](O)[C@H]2O)O[C@@H]8COCC(C)O)O[C@@H]7COCC(C)O)O[C@@H]6COCC(C)O)O[C@@H]5COCC(C)O)O[C@@H]4COCC(C)O)O[C@@H]3COCC(C)O (stereo partly drawn) [HPBCD, β-cyclodextrin, 2-hydroxypropyl ether]
